Laboratory results reported in patent US12351570B2 (MERCK PATENT GMBH, priority 2018, dated 2025).

System: MDA-MB-231 cells
Test: Extracellular lactate production inhibition after 4 h, MDA-MB-231
Details: Homo sapiens, MDA-MB-231

Row | IC50 | Compound
1 | 1 to 100 µM | Cc1cccc(S(C)(=O)=Nc2ccccc2C#Cc2ccc(C(=O)O)nc2)c1 (centres unmarked) [Compound 435, 5-[2-(2-{[methyl(3-methylphenyl)oxo-λ6-sulfanylidene]amino}phenyl)ethynyl] pyridine-2-carboxylic acid]
2 | 1 to 100 µM | CS(=O)(=Nc1ccccc1C#Cc1ccc(C(=O)O)nc1)c1cccc(F)c1 (centres unmarked) [Compound 436, 5-[2-(2-{[(3-fluorophenyl)(methyl)oxo-λ6-sulfanylidene]amino}phenyl)ethynyl] pyridine-2-carboxylic acid]
3 | 1 to 100 µM | CS(=O)(=Nc1ccccc1C#Cc1ccc(C(=O)O)nc1)c1ccccc1F (centres unmarked) [Compound 437, 5-[2-(2-{[(2-fluorophenyl)(methyl)oxo-λ6-sulfanylidene]amino}phenyl)ethynyl] pyridine-2-carboxylic acid]
4 | 1 to 100 µM | Cc1ccccc1S(C)(=O)=Nc1ccccc1C#Cc1ccc(C(=O)O)nc1 (centres unmarked) [Compound 438, 5-[2-(2-{[methyl(2-methylphenyl)oxo-λ6-sulfanylidene]amino}phenyl)ethynyl] pyridine-2-carboxylic acid]
5 | 1 to 100 µM | O=C(O)c1ccc(C#Cc2ccccc2S(=O)(=O)Nc2ccccc2)cn1 [Compound 439, 5-{2-[2-(phenylsulfamoyl)phenyl]ethynyl} pyridine-2-carboxylic acid]
6 | 1 to 100 µM | CN(c1ccccc1)S(=O)(=O)c1ccccc1C#Cc1ccc(C(=O)O)nc1 [Compound 440, 5-(2-{2-[methyl(phenyl)sulfamoyl]phenyl}-ethynyl)pyridine-2-carboxylic acid]
7 | 0.1 to 1 µM | O=C(O)c1ncc(C#Cc2ccccc2NS(=O)(=O)c2cccc3c(Cl)ccnc23)c2ccccc12 [Compound 441, 4-{2-[2-(4-chloroquinoline-8-sulfonamido)phenyl]ethynyl}iso-quinoline-1-carboxylic acid]
8 | 0.01 to 0.1 µM | CCOc1ccc(S(=O)(=O)Nc2ccccc2C#Cc2cnc(C(=O)O)c3ccccc23)c2ncccc12 [Compound 442, 4-{2-[2-(5-ethoxyquinoline-8-sulfonamido)phenyl]ethynyl}iso-quinoline-1-carboxylic acid]
9 | 1 to 100 µM | NCCOCCOCCOCCOc1ccnc2c(S(=O)(=O)Nc3ccccc3C#Cc3cnc(C(=O)O)c4ccccc34)cccc12 [Compound 443, 4-(2-{2-[4-(2-{2-[2-(2-aminoethoxy)ethoxy]ethoxy}ethoxy)quinoline-8-sulfonamido]phenyl}-ethynyl)isoquinoline-1-carboxylic acid]
10 | 1 to 100 µM | Cc1ccc2cccc(S(=O)(=O)Nc3ccccc3C#Cc3cnc(C(=O)O)c4ccccc34)c2n1 [Compound 444, 4-{2-[2-(2-methylquinoline-8-sulfonamido)phenyl]ethynyl}iso-quinoline-1-carboxylic acid]
11 | 1 to 100 µM | CCc1ccc2cccnc2c1S(=O)(=O)Nc1ccccc1C#Cc1cnc(C(=O)O)c2ccccc12 [Compound 445, 4-{2-[2-(7-ethylquinoline-8-sulfonamido)phenyl]ethynyl}iso-quinoline-1-carboxylic acid]
12 | 0.1 to 1 µM | Cc1cc(C)c2cccnc2c1S(=O)(=O)Nc1ccccc1C#Cc1cnc(C(=O)O)c2ccccc12 [Compound 446, 4-{2-[2-(5,7-dimethylquinoline-8-sulfonamido)phenyl]ethynyl}iso-quinoline-1-carboxylic acid]
13 | 0.1 to 1 µM | CC(C)Oc1ccc(S(=O)(=O)Nc2ccccc2C#Cc2cnc(C(=O)O)c3ccccc23)c2ncccc12 [Compound 447, 4-(2-{2-[5-(propan-2-yloxy)quinoline-8-sulfonamido]phenyl}ethynyl)iso-quinoline-1-carboxylic acid]
14 | 0.1 to 1 µM | CS(=O)(=Nc1ccccc1C#Cc1cnc(C(=O)O)c2ccccc12)c1cccc2cccnc12 (centres unmarked) [Compound 448, 4-[2-(2-{[methyl(oxo)(quinolin-8-yl)-λ6-sulfanylidene]amino}phenyl)ethynyl]-isoquinoline-1-carboxylic acid]
